Measured values taken from the supplement of paper PMC5908809.

Experiments:
Assay in all cases: relative IC50 (inflection point of fitted viability curve, relative to fitted max inhibition); higher = less sensitive
Settings in all cases: 72 h
[1] = test system: normal primary NK cells, pool 1 (3 donors), resting (IL-2 0 ng/mL)
Method: (§1)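 Drug sensitivity and resistance testing: 5 concentrations over a 10,000-fold range, 72 h at 37 °C, viability by CellTiter-Glo normalised to DMSO and benzethonium chloride controls. IC50 is the inflection point of a logistic fit (min fixed at 0, max fitted), so it is relative to the fitted maximal inhibition. Kept only where fitted max inhibition is at least 50%.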

IMC-1 (IL-2 20 ng/mL) = test system: IMC-1 (IL-2 20 ng/mL)
Method: as §1

NKL (IL-2 2.5 ng/mL) = test system: NKL (IL-2 2.5 ng/mL)
Method: as §1

SNK-6 (IL-2 2.5 ng/mL) = test system: SNK-6 (IL-2 2.5 ng/mL)
Method: as §1

[2] = test system: normal primary NK cells, pool 3 (3 donors) (IL-2 2.5 ng/mL)
Method: as §1

[3] = test system: normal primary NK cells, pool 2 (3 donors) (IL-2 2.5 ng/mL)
Method: as §1

NK-92 (IL-2 2.5 ng/mL) = test system: NK-92 (IL-2 2.5 ng/mL)
Method: as §1

KHYG-1 (IL-2 2.5 ng/mL) = test system: KHYG-1 (IL-2 2.5 ng/mL)
Method: as §1

NK-YS (IL-2 2.5 ng/mL) = test system: NK-YS (IL-2 2.5 ng/mL)
Method: as §1

DERL-7 (IL-2 2.5 ng/mL) = test system: DERL-7 (IL-2 2.5 ng/mL)
Method: as §1

YT (IL-2 2.5 ng/mL) = test system: YT (IL-2 2.5 ng/mL)
Method: as §1

KAI3 (IL-2 2.5 ng/mL) = test system: KAI3 (IL-2 2.5 ng/mL)
Method: as §1

[4] = test system: normal primary NK cells, pool 1 (3 donors) (IL-2 2.5 ng/mL)
Method: as §1

CN1CCN(c2ccc3nc(-c4c(N)c5c(F)cccc5[nH]c4=O)[nH]c3c2)CC1 [Dovitinib]
relative IC50 [1]: 1860 nM
relative IC50 (IMC-1 (IL-2 20 ng/mL)): > 10000 nM
relative IC50 (NKL (IL-2 2.5 ng/mL)): 1900 nM
relative IC50 (SNK-6 (IL-2 2.5 ng/mL)): > 10000 nM

Cc1cc(C)c(CNC(=O)c2cc(-c3ccc(CN4CCOCC4)cc3)cc3c2cnn3C2CCCC2)c(=O)[nH]1 [EPZ-5687]
relative IC50 [2]: > 10000 nM
relative IC50 (IMC-1 (IL-2 20 ng/mL)): > 10000 nM
relative IC50 (NKL (IL-2 2.5 ng/mL)): > 10000 nM
relative IC50 [3]: > 10000 nM
relative IC50 (NK-92 (IL-2 2.5 ng/mL)): > 10000 nM

C[C@]12CC[C@@H]3c4ccc(OC(=O)N(CCCl)CCCl)cc4CC[C@H]3[C@@H]1CC[C@@H]2O [Estramustine]
relative IC50 [2]: > 10000 nM
relative IC50 (IMC-1 (IL-2 20 ng/mL)): > 10000 nM

C=C1C[C@@H]2[C@H](CC[C@]3(C)C(=O)CC[C@@H]23)[C@@]2(C)C=CC(=O)C=C12 [Exemestane]
relative IC50 [1]: 3290 nM

Cc1cnc(Nc2ccc(OCCN3CCCC3)cc2)nc1Nc1cccc(S(=O)(=O)NC(C)(C)C)c1 [Fedratinib]
relative IC50 [2]: 479 nM
relative IC50 (IMC-1 (IL-2 20 ng/mL)): 929 nM
relative IC50 [3]: 462 nM

COc1cc(C(=O)O)ccc1NC(=O)[C@@H]1N[C@@H](CC(C)(C)C)[C@](C#N)(c2ccc(Cl)cc2F)[C@H]1c1cccc(Cl)c1F [Idasanutlin]
relative IC50 [2]: 265 nM
relative IC50 [3]: 197 nM

O=C(Cc1ccc(-c2ccc(OCCN3CCOCC3)cc2)cn1)NCc1ccccc1 [KX2-391]
relative IC50 (KHYG-1 (IL-2 2.5 ng/mL)): 30.3 nM
relative IC50 (NK-YS (IL-2 2.5 ng/mL)): 26.1 nM
relative IC50 (IMC-1 (IL-2 20 ng/mL)): 34.4 nM
relative IC50 (NKL (IL-2 2.5 ng/mL)): 27.8 nM
relative IC50 (DERL-7 (IL-2 2.5 ng/mL)): 28.1 nM
relative IC50 (SNK-6 (IL-2 2.5 ng/mL)): 5.46 nM
relative IC50 (YT (IL-2 2.5 ng/mL)): 23 nM
relative IC50 (KAI3 (IL-2 2.5 ng/mL)): 28.1 nM
relative IC50 (NK-92 (IL-2 2.5 ng/mL)): 12.3 nM

Oc1ccc2c(c1)CC[C@H](c1ccccc1)[C@@H]2c1ccc(OCCN2CCCC2)cc1 [Lasofoxifene]
relative IC50 [2]: > 1000 nM
relative IC50 (NKL (IL-2 2.5 ng/mL)): > 1000 nM
relative IC50 [3]: > 1000 nM

Clc1ccc(C(c2ccccc2Cl)C(Cl)Cl)cc1 (stereo not drawn) [Mitotane]
relative IC50 (KHYG-1 (IL-2 2.5 ng/mL)): > 10000 nM
relative IC50 (NK-YS (IL-2 2.5 ng/mL)): > 10000 nM
relative IC50 (IMC-1 (IL-2 20 ng/mL)): > 10000 nM
relative IC50 (NKL (IL-2 2.5 ng/mL)): > 10000 nM
relative IC50 [3]: > 10000 nM
relative IC50 (YT (IL-2 2.5 ng/mL)): > 10000 nM
relative IC50 (KAI3 (IL-2 2.5 ng/mL)): > 10000 nM
relative IC50 (NK-92 (IL-2 2.5 ng/mL)): > 10000 nM

CNC(=O)c1ccc(-c2cnc3ncc(Cc4ccc5ncccc5c4)n3n2)cc1F [NVP-INC280]
relative IC50 [2]: > 1000 nM
relative IC50 [4]: > 1000 nM

COC1=CC(c2cc3ccccc3[nH]2)=N/C1=C\c1[nH]c(C)cc1C [Obatoclax]
relative IC50 [1]: 1880 nM
relative IC50 (NKL (IL-2 2.5 ng/mL)): 247 nM
relative IC50 (NK-92 (IL-2 2.5 ng/mL)): 449 nM

O=C(Nc1cccnc1)N1CCC(Cc2cccc(Oc3ccc(C(F)(F)F)cn3)c2)CC1 [PF-3845]
relative IC50 (KHYG-1 (IL-2 2.5 ng/mL)): 2560 nM
relative IC50 [1]: 3480 nM
relative IC50 (NK-YS (IL-2 2.5 ng/mL)): 2040 nM
relative IC50 [4]: 2860 nM
relative IC50 (NKL (IL-2 2.5 ng/mL)): 1560 nM

CC(=O)O[C@H]1C(=O)[C@@]2(C)[C@H]([C@H](OC(=O)c3ccccc3)[C@]3(O)C[C@H](OC(=O)[C@H](O)[C@@H](NC(=O)c4ccccc4)c4ccccc4)C(C)=C1C3(C)C)[C@]1(OC(C)=O)CO[C@@H]1C[C@@H]2O [Paclitaxel]
relative IC50 (KHYG-1 (IL-2 2.5 ng/mL)): 6.15 nM
relative IC50 (NK-YS (IL-2 2.5 ng/mL)): 4.26 nM
relative IC50 (IMC-1 (IL-2 20 ng/mL)): 3.31 nM
relative IC50 (NKL (IL-2 2.5 ng/mL)): 4.61 nM
relative IC50 (DERL-7 (IL-2 2.5 ng/mL)): 3.25 nM
relative IC50 (SNK-6 (IL-2 2.5 ng/mL)): 3.77 nM
relative IC50 (YT (IL-2 2.5 ng/mL)): 5.42 nM
relative IC50 (KAI3 (IL-2 2.5 ng/mL)): 2.92 nM
relative IC50 (NK-92 (IL-2 2.5 ng/mL)): 22 nM

Nc1nc2[nH]cc(CCc3ccc(C(=O)N[C@@H](CCC(=O)O)C(=O)O)cc3)c2c(=O)[nH]1 [Pemetrexed]
relative IC50 [2]: > 10000 nM
relative IC50 (IMC-1 (IL-2 20 ng/mL)): 146 nM
relative IC50 [3]: > 10000 nM

COc1cc(C(=O)O)ccc1NC(=O)[C@@H]1N[C@@H](CC(C)(C)C)[C@](C#N)(c2ccc(Cl)cc2F)[C@H]1c1cccc(Cl)c1F [RG7388]
relative IC50 (KHYG-1 (IL-2 2.5 ng/mL)): 3560 nM
relative IC50 [1]: 29.7 nM
relative IC50 (NK-YS (IL-2 2.5 ng/mL)): 86.3 nM
relative IC50 [4]: 132 nM
relative IC50 (NKL (IL-2 2.5 ng/mL)): 2450 nM
relative IC50 (DERL-7 (IL-2 2.5 ng/mL)): 97 nM
relative IC50 (SNK-6 (IL-2 2.5 ng/mL)): 30.2 nM
relative IC50 (YT (IL-2 2.5 ng/mL)): 209 nM
relative IC50 (KAI3 (IL-2 2.5 ng/mL)): 39.1 nM
relative IC50 (NK-92 (IL-2 2.5 ng/mL)): 2120 nM

N#CC[C@H](C1CCCC1)n1cc(-c2ncnc3[nH]ccc23)cn1 [Ruxolitinib]
relative IC50 (KHYG-1 (IL-2 2.5 ng/mL)): 21.9 nM
relative IC50 [2]: 80.4 nM
relative IC50 (NK-YS (IL-2 2.5 ng/mL)): 85.1 nM
relative IC50 (IMC-1 (IL-2 20 ng/mL)): 780 nM
relative IC50 [4]: 69 nM
relative IC50 (NKL (IL-2 2.5 ng/mL)): 15.8 nM
relative IC50 (DERL-7 (IL-2 2.5 ng/mL)): 45.4 nM
relative IC50 (SNK-6 (IL-2 2.5 ng/mL)): 31.1 nM
relative IC50 [3]: 43.7 nM
relative IC50 (YT (IL-2 2.5 ng/mL)): 142 nM
relative IC50 (KAI3 (IL-2 2.5 ng/mL)): 17.1 nM
relative IC50 (NK-92 (IL-2 2.5 ng/mL)): 55.7 nM

Cc1cc(C)c(/C=C2\C(=O)Nc3ccccc32)[nH]1 [Semaxanib]
relative IC50 [1]: > 10000 nM
relative IC50 [2]: > 10000 nM
relative IC50 [4]: > 10000 nM
relative IC50 (NKL (IL-2 2.5 ng/mL)): > 10000 nM
relative IC50 (DERL-7 (IL-2 2.5 ng/mL)): > 10000 nM

CC(C)(O)CC(=O)NCCn1ccc2ncnc(Nc3ccc(Oc4cccc(C(F)(F)F)c4)c(Cl)c3)c21 [TAK-285]
relative IC50 [2]: > 2500 nM
relative IC50 (IMC-1 (IL-2 20 ng/mL)): > 2500 nM
relative IC50 (NKL (IL-2 2.5 ng/mL)): > 2500 nM
relative IC50 [3]: > 2500 nM

Nc1nc2[nH]cnc2c(=S)[nH]1 [Thioguanine]
relative IC50 (KHYG-1 (IL-2 2.5 ng/mL)): 322 nM
relative IC50 (NK-YS (IL-2 2.5 ng/mL)): 296 nM
relative IC50 (IMC-1 (IL-2 20 ng/mL)): 1300 nM
relative IC50 [4]: 2100 nM
relative IC50 (NKL (IL-2 2.5 ng/mL)): 1440 nM
relative IC50 (DERL-7 (IL-2 2.5 ng/mL)): 2350 nM
relative IC50 (SNK-6 (IL-2 2.5 ng/mL)): 938 nM
relative IC50 [3]: 1900 nM
relative IC50 (YT (IL-2 2.5 ng/mL)): 383 nM
relative IC50 (KAI3 (IL-2 2.5 ng/mL)): 1780 nM
relative IC50 (NK-92 (IL-2 2.5 ng/mL)): 742 nM

COc1cc2nccc(Oc3ccc(NC(=O)Nc4cc(C)on4)c(Cl)c3)c2cc1OC [Tivozanib]
relative IC50 (KHYG-1 (IL-2 2.5 ng/mL)): 1630 nM
relative IC50 [1]: 1520 nM
relative IC50 (NK-YS (IL-2 2.5 ng/mL)): 1750 nM
relative IC50 (DERL-7 (IL-2 2.5 ng/mL)): 2780 nM
relative IC50 (SNK-6 (IL-2 2.5 ng/mL)): 799 nM
relative IC50 (YT (IL-2 2.5 ng/mL)): 1490 nM
relative IC50 (NK-92 (IL-2 2.5 ng/mL)): 319 nM

C[C@@H]1CCN(C(=O)CC#N)C[C@@H]1N(C)c1ncnc2[nH]ccc12 [Tofacitinib]
relative IC50 (KHYG-1 (IL-2 2.5 ng/mL)): 41 nM
relative IC50 [2]: 204 nM
relative IC50 (NK-YS (IL-2 2.5 ng/mL)): 101 nM
relative IC50 (IMC-1 (IL-2 20 ng/mL)): 616 nM
relative IC50 [4]: 75 nM
relative IC50 (NKL (IL-2 2.5 ng/mL)): 33.1 nM
relative IC50 (DERL-7 (IL-2 2.5 ng/mL)): 99.5 nM
relative IC50 (SNK-6 (IL-2 2.5 ng/mL)): 78 nM
relative IC50 [3]: 95.5 nM
relative IC50 (YT (IL-2 2.5 ng/mL)): 336 nM
relative IC50 (KAI3 (IL-2 2.5 ng/mL)): 42.3 nM
relative IC50 (NK-92 (IL-2 2.5 ng/mL)): 141 nM

CN(C)CCOc1ccc(/C(=C(/CCCl)c2ccccc2)c2ccccc2)cc1 [Toremifene]
relative IC50 [1]: 2370 nM
relative IC50 [4]: 3740 nM
relative IC50 (DERL-7 (IL-2 2.5 ng/mL)): 1090 nM
relative IC50 (KAI3 (IL-2 2.5 ng/mL)): 2030 nM
relative IC50 (NK-92 (IL-2 2.5 ng/mL)): 2190 nM

CC(=O)Nc1cccc(-n2c(=O)n(C3CC3)c(=O)c3c(Nc4ccc(I)cc4F)n(C)c(=O)c(C)c32)c1 [Trametinib]
relative IC50 (KHYG-1 (IL-2 2.5 ng/mL)): 4.89 nM
relative IC50 [2]: > 250 nM
relative IC50 (IMC-1 (IL-2 20 ng/mL)): > 250 nM
relative IC50 (NKL (IL-2 2.5 ng/mL)): 2.51 nM
relative IC50 (NK-92 (IL-2 2.5 ng/mL)): > 250 nM

COc1cc2/c(=N/c3ccc(Br)cc3F)nc[nH]c2cc1OCC1CCN(C)CC1 [Vandetanib]
relative IC50 [2]: > 1000 nM

C[C@]1(c2nc3c(C(N)=O)cccc3[nH]2)CCCN1 [Veliparib]
relative IC50 [1]: 3590 nM
relative IC50 [4]: 2020 nM
